Experimental data: ChEMBL document CHEMBL1201862, “PubChem BioAssay data set” (2004)
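Five compound concentrations were applied to cells in 96-well plates for 48 hours; endpoints were derived by simple linear interpolation of the resulting dose-response curve. GI50 marks 50% less growth.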 Active and inactive are the calls of the source. Rule as the data show it: active = GI50 up to about 1.1 µM and inactive = higher.

How the values were obtained:
Experiment in all cases: NCI anticancer screen, dose series, 48 h
[1] = tested on: HCT-116
[2] = tested on: MDA-MB-231
[3] = tested on: A498
[4] = tested on: NCI-H460
[5] = tested on: SN12C
[6] = tested on: MDA-N
[7] = tested on: SF-268
[8] = tested on: TK-10
[9] = tested on: OVCAR-4
[10] = tested on: U-251
[11] = tested on: A549
[12] = tested on: MCF7
[13] = tested on: SR
[14] = tested on: KM12
[15] = tested on: SW-620
[16] = tested on: SNB-19
[17] = tested on: BT-549
[18] = tested on: UACC-62
[19] = tested on: SK-MEL-2
[20] = tested on: COLO 205
[21] = tested on: CAKI-1
[22] = tested on: SF-295
[23] = tested on: HCT-15
[24] = tested on: 786-0
[25] = tested on: UO-31
[26] = tested on: DU-145
[27] = tested on: EKVX
[28] = tested on: NCI-H226
[29] = tested on: Malme-3M
[30] = tested on: NCI-H23
[31] = tested on: SK-MEL-28
[32] = tested on: CCRF-CEM
[33] = tested on: M14
[34] = tested on: SF-539
[35] = tested on: NCI/ADR-RES
[36] = tested on: ACHN
[37] = tested on: SK-MEL-5
[38] = tested on: RPMI-8226
[39] = tested on: OVCAR-8
[40] = tested on: K562
[41] = tested on: OVCAR-5
[42] = tested on: HL-60
[43] = tested on: NCI-H522
[44] = tested on: OVCAR-3
[45] = tested on: Hs-578T
[46] = tested on: MDA-MB-435
[47] = tested on: T47D
[48] = tested on: RXF 393
[49] = tested on: MOLT-4
[50] = tested on: SK-OV-3
[51] = tested on: SNB-75
[52] = tested on: UACC-257
[53] = tested on: HOP-62
[54] = tested on: LOX IMVI
[55] = tested on: HOP-92
[56] = tested on: IGROV-1
[57] = tested on: PC-3
[58] = tested on: HT-29
[59] = tested on: HCC 2998

For `N=C(N)N/N=C/c1c(Cl)nc2sccn12`, the GI50 [1] was 15.3 µM (inactive), the GI50 [2] was 33.6 µM (inactive) and the GI50 [3] was 28.2 µM (inactive). For the same compound, the GI50 [4] was 16.7 µM (inactive), the GI50 [5] was 38.5 µM (inactive) and the GI50 [6] was 30.1 µM (inactive). The GI50 [7] was 24.2 µM (inactive), the GI50 [8] was 52.2 µM (inactive) and the GI50 [9] was 19.2 µM (inactive). For the same compound, the GI50 [10] was 29.9 µM (inactive), the GI50 [11] was 30.5 µM (inactive) and the GI50 [12] was 26.9 µM (inactive). The GI50 [13] was 22.9 µM (inactive), the GI50 [14] was 16.4 µM (inactive) and the GI50 [15] was 18 µM (inactive). For the same compound, the GI50 [16] was 35.8 µM (inactive), the GI50 [17] was 26.9 µM (inactive) and the GI50 [18] was 31.8 µM (inactive). For the same compound, the GI50 [19] was > 10 µM (inactive), the GI50 [20] was 14.9 µM (inactive) and the GI50 [21] was 52.6 µM (inactive). The GI50 [22] was 21.4 µM (inactive), the GI50 [23] was greater than 10 µM and the GI50 [24] was 17.1 µM (inactive). For the same compound, the GI50 [25] was 34.7 µM (inactive), the GI50 [26] was 44.4 µM (inactive) and the GI50 [27] was 42.9 µM (inactive). The GI50 [28] was 25.4 µM (inactive), the GI50 [29] was 23.3 µM (inactive) and the GI50 [30] was 46.6 µM (inactive). The GI50 [31] was 35.4 µM (inactive), the GI50 [32] was 21.1 µM (inactive) and the GI50 [33] was 15.5 µM (inactive). For the same compound, the GI50 [34] was 19.8 µM (inactive), the GI50 [35] was 55.2 µM (inactive) and the GI50 [36] was 16.8 µM (inactive). For the same compound, the GI50 [37] was 15.8 µM (inactive), the GI50 [38] was 19.4 µM (inactive) and the GI50 [39] was 50.4 µM (inactive). For the same compound, the GI50 [40] was 25.6 µM (inactive), the GI50 [41] was 28.8 µM (inactive) and the GI50 [42] was 17.4 µM (inactive). The GI50 [43] was 27 µM (inactive), the GI50 [44] was 24.1 µM (inactive) and the GI50 [45] was 18.2 µM (inactive). For the same compound, the GI50 [46] was 36.1 µM (inactive), the GI50 [47] was 26.5 µM (inactive) and the GI50 [48] was 28.2 µM (inactive). The GI50 [49] was 16.4 µM (inactive), the GI50 [50] was 60.1 µM (inactive) and the GI50 [51] was 38.1 µM (inactive). For the same compound, the GI50 [52] was 23.4 µM (inactive), the GI50 [53] was 21.5 µM (inactive) and the GI50 [54] was 18.9 µM (inactive). For the same compound, the GI50 [55] was 21.1 µM (inactive), the GI50 [56] was 53.5 µM (inactive) and the GI50 [57] was 30.4 µM (inactive). The GI50 [58] was 17.3 µM (inactive) and the GI50 [59] was 16.9 µM (inactive).
In the case of `CCOC(=O)c1nc2cc(C(F)(F)F)ccc2nc1Nc1ccc(Cl)c(Cl)c1`, the GI50 [1] was 69.7 µM (inactive), the GI50 [2] was > 100 µM (inactive) and the GI50 [3] was > 100 µM (inactive). For the same compound, the GI50 [4] was 35.3 µM (inactive), the GI50 [5] was > 100 µM (inactive) and the GI50 [6] was > 100 µM (inactive). For the same compound, the GI50 [7] was > 100 µM (inactive), the GI50 [8] was > 100 µM (inactive) and the GI50 [9] was 97.5 µM (inactive). The GI50 [10] was 53.6 µM (inactive), the GI50 [11] was 84.3 µM (inactive) and the GI50 [12] was > 100 µM (inactive). For the same compound, the GI50 [13] was 49.9 µM (inactive), the GI50 [14] was 65 µM (inactive) and the GI50 [15] was 73.3 µM (inactive). The GI50 [16] was > 100 µM (inactive), the GI50 [17] was 86.3 µM (inactive) and the GI50 [18] was > 100 µM (inactive). For the same compound, the GI50 [19] was > 100 µM (inactive), the GI50 [20] was > 100 µM (inactive) and the GI50 [21] was > 100 µM (inactive). For the same compound, the GI50 [22] was 74.6 µM (inactive), the GI50 [23] was greater than 100 µM and the GI50 [24] was > 100 µM (inactive). The GI50 [25] was > 100 µM (inactive), the GI50 [26] was > 100 µM (inactive) and the GI50 [27] was > 100 µM (inactive). The GI50 [28] was > 100 µM (inactive), the GI50 [29] was > 100 µM (inactive) and the GI50 [30] was > 100 µM (inactive). The GI50 [31] was > 100 µM (inactive), the GI50 [32] was 67.5 µM (inactive) and the GI50 [33] was > 100 µM (inactive). The GI50 [34] was > 100 µM (inactive), the GI50 [35] was > 100 µM (inactive) and the GI50 [36] was > 100 µM (inactive). For the same compound, the GI50 [37] was > 100 µM (inactive), the GI50 [38] was 33.4 µM (inactive) and the GI50 [39] was > 100 µM (inactive). For the same compound, the GI50 [41] was > 100 µM (inactive), the GI50 [42] was 31.8 µM (inactive) and the GI50 [43] was > 100 µM (inactive). For the same compound, the GI50 [44] was > 100 µM (inactive), the GI50 [45] was > 100 µM (inactive) and the GI50 [46] was 62.7 µM (inactive). For the same compound, the GI50 [47] was > 100 µM (inactive), the GI50 [48] was > 100 µM (inactive) and the GI50 [49] was > 100 µM (inactive). The GI50 [50] was 97.9 µM (inactive), the GI50 [51] was 58.1 µM (inactive) and the GI50 [52] was > 100 µM (inactive). The GI50 [53] was 76.6 µM (inactive), the GI50 [54] was > 100 µM (inactive) and the GI50 [55] was 24.2 µM (inactive). The GI50 [56] was > 100 µM (inactive), the GI50 [57] was 75.2 µM (inactive) and the GI50 [58] was 66.8 µM (inactive). The GI50 [59] was 69.3 µM (inactive).
